Experimental data published in patent US5986083A, “Synthetic oligomers having phosphonate internucleosidyl linkages of undefined chirality mixed with non-phosphonate internucleosidyl linkages” (priority 1994, dated 1999).

Test system: complementary RNA target
Experiment: Thermal dissociation from complementary RNA target (second Example H)
Type: binding
Conditions: for Td: 50% of bound oligomer denatured from RNA target, pH 6.8 denaturation buffer; for ΔTd/DE Bond: per DE bond
Method: The following oligomers [SEQ. ID. NO. ] were tested for their ability to bind a complementary RNA target. Each has the same nucleotide sequence but with a different number of phosphodiester and/or methylphosphonate linkages.
An RNA target containing a tandem array of complementary target sequences connected by noncomplementary sequences (170 nt long) was prepared from synthetic DNA oligonucleotides by standard closing techniques.
Each of the test oligomers (above) was end-labeled with ^32 p using […] and T4 polynucleotide kinase. The resulting labeled oligomers were purified on a Nensorb-20 column (New England Nuclear/DuPont) according to the manufacturer's specifications. The final specific activity of each oligomer ranged between 2×10^6 and 4×10^6 cpm/pmol (Cerenkov radiation). Annealing reactions were prepared with one of the test oligomers (100,000 cpms) and 250 pmols of RNA target in 20 mM potassium phosphate, 0.03% potassium sarkosylate, 0.1 mM EDTA, pH 7.2, total volume--200 μL. These annealing reactions were heated to 80° C. and then cooled slowly to 4° C. over a period of about 4 to 6 hours. Next, 20 μL aliquots from each tube were transferred to separate tubes containing 0.5 mL of 0.1 M sodium phosphate, 0.1% Triton X-100, pH 6.8. This transfer step was done on ice. The resulting tubes were individually heated at various temperatures "denaturation temperatures", ranging from 10 to 70° C.) in a circulating water bath for five minutes and then quickly cooled by immersion in crushed ice. Next, 10 μL of Amine BioMag (Advanced Magnetics, Inc., Cat. No. M-4100, 50 mg/mL stock in water) was added to the tube and it was vortexed briefly and placed back on ice for 5 minutes. During this time period, the RAN target strands (both free and bound) separated onto the magnetic support. […] Thus, the amount of radioactivity bound to the support was proportional to the amount of hybridized oligomer remaining at each denaturation temperature after five minutes. A curve was then plotted for the percentage of hybridized oligomer remaining at each denaturation temperature. The thermal dissociation temperature (Td) was defined as the temperature at which 50% of the bound oligomer had denatured away from the RNA target. The following table summarizes the results from this experiment.

Row | Substance | Td [°C] | ΔTd/DE Bond [°C]
1 | 5'-GpAmTmAmTdCmTmGpCmGmGmTmGmTpCmCmAmT-3' [Oligomer 1362] | 30.7 | 0.5
2 | 5'-GpAmTmAmTmCmTmGmCmGmGmTmGmTmCmCmAmT-3' [Oligomer 1036] | 29.3 | 
3 | 5'-GpAmTmAmTmCpTmGmCpGmGmTmGmTmCpCpAmT-3' [Oligomer 1361] | 32.2 | 0.7
4 | 5'-GpAmTpAmTpCmTpGmCmGmGmTpGmTpCmCmAmT-3' [Oligomer 1359] | 34.0 | 0.9
5 | 5'-GpAmTpAmTpCpTpGmCpGmGmTpGmTpCpCpAmT-3' [Oligomer 1363] | 45.2 | 1.8
